# Source: patent US9738932B2, “Biomarkers for cardiovascular side-effects induced by cox-2 inhibitory compounds” (FIRALIS SAS, priority 2005, dated 2017)
# Test system: mRNA expression in cardiovascular tissues
# Assay: Affymetrix GeneChip mRNA expression profiling of monkey tissues (iliac vein, pulmonary vein, aorta, carotid artery, heart) after two-week oral-gavage treatment
# [1] = iliac vein, group avg, Vioxx without A60055
# Experimental: Administration of compounds. A two-week oral-gavage treatment with the Cox-2 specific inhibitor COX189 (Lumiracoxib®, Novartis) in comparison with rofecoxib (Vioxx®, Merck), and celecoxib (Celebrex®, Pharmacia/Pfizer), and with the nonselective NSAID, diclofenac (Voltaren®, Novartis) was performed. […] The test items were administered daily at doses of 100 mg/kg/day, except Vioxx® which was administered at 50 mg/kg/day.
# Gene expression profiles. After a period of time (e.g., four weeks) of compound/drug administration, the treated animals are necropsied. 120 tissues are dissected and rapidly snap-frozen for genomics analysis. Organ samples are isolated for histopathological examinations and for gene expression localizations, such as by in situ hybridization.
# Gene expression profiles have been generated using the Affymetrix microarray technology. (i) RNA extraction and purification: Briefly, total RNA was obtained by acid guanidinium thiocyanate-phenol-chloroform extraction (Trizol®, Invitrogen Life Technologies, San Diego, Calif.) from each frozen tissue section and the total RNA was then purified on an affinity resin (Rneasy®, Qiagen) according to the manufacturer's instructions. Total RNA was quantified by the absorbance at λ=260 nm (A260 nm) and the purity was estimated by the ratio A260 nm/A280 nm. Integrity of the RNA molecules was confirmed by non-denaturing agarose gel electrophoresis. RNA was stored at −80° C. until analysis. […] (ii) GeneChip® experiment: All GeneChip® experiments were conducted in the Genomics Factory EU following recommendations by the manufacturer of the GeneChip® system (Affymetrix, Expression Analysis Technical Manual (Affymetrix, Santa Clara, Calif., 2005). Human U133A genome arrays were used for transcript expression analysis. Double stranded cDNA was synthesized with a starting amount of approximately 5 μg full-length total RNA using the Superscript Choice System (Invitrogen Life Technologies) in the presence of a T7-(dT) 24 DNA oligonucleotide primer. Following synthesis, the cDNA was purified by phenol/chloroform/isoamyl alcohol extraction and ethanol precipitation. The purified cDNA was then transcribed in vitro using the BioArray® High Yield RNA Transcript Labeling Kit (ENZO) in the presence of biotinylated ribonucleotides form biotin labelled cRNA. The labelled cRNA was then purified on an affinity resin (Rneasy, Qiagen), quantified and fragmented. An amount of approximately 10 μg labelled cRNA was hybridized for approximately 16 hours at 45° C. to an expression probe array. The array was then washed and stained twice with streptavidin-phycoerythrin (Molecular Probes) using the GeneChip Fluidics Workstation 400 (Affymetrix). The array was then scanned twice using a confocal laser scanner (GeneArray Scanner®, Agilent) resulting in one scanned image. This resulting “.dat-file” was processed using the MASS program (Affymetrix) into a “.cel-file”. The “.cel file” was then transferred to tan Affymetrix GeneChip Laboratory Information Management System (LIMS) database, which is connected to a UNIX Sun Solaris server through a network filing system that allows for the average intensities for all probes cells (CEL file) to be downloaded into an Oracle database (NPGN). Raw data was converted to expression levels using a “target intensity” of 100. […] The data were checked for quality and loaded in the GeneSpring® software versions 5.0 (Silicon Genetics, Calif., US) for statistical analysis.
# Quality control analysis of transcriptome data: The following quality measures were analysed for each sample: Scaling factor, background, percent present calls, AFFX-GAPDH 3′: AFFX-GAPDH 5′-ratio, AFFX-GAPDH 3′ variance, AFFX-Beta-actin 3′: AFFX-Beta-actin 5′-ratio.
smiles,measurement,setting,value
"CS(=O)(=O)c1ccc(C2=C(c3ccccc3)C(=O)OC2)cc1 [Vioxx®, rofecoxib]",HFE (211866_x_at) avg fold change vs control,[1],1.0 fold
same,HHL (203020_at) avg fold change vs control,[1],1.1 fold
same,HLA-A (211528_x_at) avg fold change vs control,[1],1.3 fold
same,HLA-A (211529_x_at) avg fold change vs control,[1],1.2 fold
same,HLA-A (211530_x_at) avg fold change vs control,[1],1.8 fold
same,HLA-A (215313_x_at) avg fold change vs control,[1],1.3 fold
same,HLA-B (208729_x_at) avg fold change vs control,[1],1.2 fold
same,HLA-B (209140_x_at) avg fold change vs control,[1],1.1 fold
same,HLA-B (211911_x_at) avg fold change vs control,[1],1.4 fold
same,HLA-C (208812_x_at) avg fold change vs control,[1],1.3 fold
same,HLA-C (214459_x_at) avg fold change vs control,[1],1.4 fold
same,HLA-C (216526_x_at) avg fold change vs control,[1],1.3 fold
same,HLA-DMA (217478_s_at) avg fold change vs control,[1],1.1 fold
same,HLA-DMB (203932_at) avg fold change vs control,[1],1.1 fold
same,HLA-DQA1 (212671_s_at) avg fold change vs control,[1],1.0 fold
same,HLA-DQB1 (209823_x_at) avg fold change vs control,[1],0.9 fold
same,HLA-DQB1 (211654_x_at) avg fold change vs control,[1],1.0 fold
same,HLA-DQB1 (211656_x_at) avg fold change vs control,[1],1.0 fold
same,HLA-DQB2 (212998_x_at) avg fold change vs control,[1],1.2 fold
same,HLA-DRA (208894_at) avg fold change vs control,[1],1.0 fold
same,HLA-DRA (210982_s_at) avg fold change vs control,[1],1.0 fold
same,HLA-DRB1 (215193_x_at) avg fold change vs control,[1],1.2 fold
same,HLA-DRB3 (209312_x_at) avg fold change vs control,[1],1.1 fold
same,HLA-DRB6 (217362_x_at) avg fold change vs control,[1],1.2 fold
same,HLA-E (200905_x_at) avg fold change vs control,[1],1.3 fold
same,HLA-E (217456_x_at) avg fold change vs control,[1],1.2 fold
same,HLA-F (204806_x_at) avg fold change vs control,[1],1.1 fold
same,HLA-F (221875_x_at) avg fold change vs control,[1],1.2 fold
same,ICAM1 (202638_s_at) avg fold change vs control,[1],0.8 fold
same,ICAM1 (215485_s_at) avg fold change vs control,[1],0.9 fold
same,ICSBP1 (204057_at) avg fold change vs control,[1],1.4 fold
same,IFI27 (202411_at) avg fold change vs control,[1],3.8 fold
same,IFI30 (201422_at) avg fold change vs control,[1],1.0 fold
same,IFI44 (214453_s_at) avg fold change vs control,[1],2.5 fold
same,IFIT1 (203153_at) avg fold change vs control,[1],1.5 fold
same,IFIT2 (217502_at) avg fold change vs control,[1],1.3 fold
same,IFIT4 (204747_at) avg fold change vs control,[1],0.9 fold
same,IFITM2 (201315_x_at) avg fold change vs control,[1],1.1 fold
same,IFITM3 (212203_x_at) avg fold change vs control,[1],1.4 fold
same,IGF1 (209541_at) avg fold change vs control,[1],0.9 fold
same,IGFBP4 (201508_at) avg fold change vs control,[1],0.5 fold
same,IL1A (208200_at) avg fold change vs control,[1],1.1 fold
same,IL2RG (204116_at) avg fold change vs control,[1],1.4 fold
same,IL27RA (205926_at) avg fold change vs control,[1],1.1 fold
same,INDO (210029_at) avg fold change vs control,[1],1.1 fold
same,INPP5D (203332_s_at) avg fold change vs control,[1],1.2 fold
same,IRF1 (202531_at) avg fold change vs control,[1],0.8 fold
same,IRF7 (208436_s_at) avg fold change vs control,[1],1.6 fold
same,ISGF3G (203882_at) avg fold change vs control,[1],1.7 fold
same,ITGB2 (202803_s_at) avg fold change vs control,[1],0.6 fold
same,JAK1 (214377_s_at) avg fold change vs control,[1],1.3 fold
same,KLKB1 (206541_at) avg fold change vs control,[1],1.2 fold
same,LAIR1 (208071_s_at) avg fold change vs control,[1],0.5 fold
same,LCK (204890_s_at) avg fold change vs control,[1],1.5 fold
same,LCP2 (205270_s_at) avg fold change vs control,[1],0.9 fold
same,LILRB1 (207857_at) avg fold change vs control,[1],0.5 fold
same,LILRB1 (211100_x_at) avg fold change vs control,[1],1.3 fold
same,LILRB3 (208594_x_at) avg fold change vs control,[1],0.9 fold
same,LILRB3 (210225_x_at) avg fold change vs control,[1],0.8 fold
same,LRMP (204674_at) avg fold change vs control,[1],1.7 fold
same,LY86 (205859_at) avg fold change vs control,[1],1.5 fold
same,LY96 (206584_at) avg fold change vs control,[1],1.1 fold
same,LYN (210754_s_at) avg fold change vs control,[1],1.0 fold
same,MAF (209348_s_at) avg fold change vs control,[1],1.0 fold
same,PCOLCE (202465_at) avg fold change vs control,[1],0.5 fold
same,PLA2G4C (209785_s_at) avg fold change vs control,[1],1.2 fold
same,PLCL2 (216217_at) avg fold change vs control,[1],1.0 fold
same,PLSCR1 (202446_s_at) avg fold change vs control,[1],1.2 fold
same,PRC1 (218009_s_at) avg fold change vs control,[1],0.7 fold
same,PRG1 (201858_s_at) avg fold change vs control,[1],0.8 fold
same,PRG1 (201859_at) avg fold change vs control,[1],0.8 fold
same,PTPN22 (206060_s_at) avg fold change vs control,[1],1.0 fold
same,PTPRC (207238_s_at) avg fold change vs control,[1],1.3 fold
same,SOCS3 (206360_s_at) avg fold change vs control,[1],0.8 fold
same,STAT1 (209969_s_at) avg fold change vs control,[1],1.7 fold
same,STAT1 (AFFX-HUMISGF3A/M97935_5_at) avg fold change vs control,[1],1.3 fold
same,STAT1 (AFFX-HUMISGF3A/M97935_MA_at) avg fold change vs control,[1],1.3 fold
same,STAT1 (AFFX-HUMISGF3A/M97935_MB_at) avg fold change vs control,[1],1.5 fold
same,TAPBP (208829_at) avg fold change vs control,[1],0.9 fold
same,TCTEL1 (201999_s_at) avg fold change vs control,[1],0.9 fold
same,TLR1 (210176_at) avg fold change vs control,[1],0.9 fold
same,TLR2 (204924_at) avg fold change vs control,[1],0.9 fold
same,TNFAIP3 (202643_s_at) avg fold change vs control,[1],0.8 fold
same,TNFAIP3 (202644_s_at) avg fold change vs control,[1],1.2 fold
same,TNFSF6 (210865_at) avg fold change vs control,[1],1.1 fold
same,TNFSF10 (202687_s_at) avg fold change vs control,[1],1.2 fold
same,TNFSF10 (202688_at) avg fold change vs control,[1],0.9 fold
same,TRGC2 (211144_x_at) avg fold change vs control,[1],1.3 fold
same,TRGC2 (216920_s_at) avg fold change vs control,[1],1.0 fold
same,VCAM1 (203868_s_at) avg fold change vs control,[1],0.8 fold
same,XCL1 (206366_x_at) avg fold change vs control,[1],1.5 fold
same,XCL1 (214567_s_at) avg fold change vs control,[1],1.1 fold
same,XLKD1 (219059_s_at) avg fold change vs control,[1],1.0 fold
same,cig5 (213797_at) avg fold change vs control,[1],1.4 fold
same,expression of CXCL10 and PD-ECGF,"mainly in iliac and pulmonary veins, monkey #A60055",strongly induced
same,increase of CXCL10 mRNA expression in pulmonary vein,"monkey #A60055, 50 mg/kg/day oral gavage, two weeks, pulmonary vein",20 fold
same,increase of MCP-1 mRNA expression in pulmonary vein,"monkey A60055, 50 mg/kg/day oral gavage, two weeks, pulmonary vein",150 fold
same,expression of cPLA2,most of the cardiovascular tissues,upregulated
same,expression of Toll like receptor 2 and CD14,several tissues,significantly increased
